How the values were obtained:
Format in all cases: in vivo, human
[1] = test system: musculoskeletal and connective tissue inflammations; assay: Treatment of patients with initial and maintenance dosage, general findings; settings: long term use of the low maintenance dosage
Protocol: Preferably, the treatment method further includes two treatment periods: an initial treatment, and a maintenance treatment. First, in the initial treatment, a patient administrates an initial dosage of 13-cis-retinoic acid for a period from about ten days to about five months. Thereafter, the patient administrates a lower maintenance dosage of 13-cis-retinoic acid.
The dosage is determined based on the patient's body weight. The initial dosage is in a range from about 10 mg to 80 mg 13-cis-retinoic acid daily (about 0.14 mg to about 1.1 mg per kilogram (kg) of body weight). For average men having a body weight about 160 lbs (72.6 kg), the average initial dosage is about 40 mg daily. The maintenance dosage is in a range from about 10 mg to 80 mg 13-cis-retinoic acid every three to seven days (about 0.14 mg to about 1.1 mg per kilogram (kg) of body weight). The average maintenance dosage for average men having a body weight about 160 lbs is about 40 mg every three to seven days. The dosages should be adjusted accordingly for children or those who weigh substantially less than or above the average body weight.
Furthermore, no serious adverse side effects were observed by using the described treatment. […]

[2] = test system: inflammatory osteoarthritis and rheumatism; assay: Clinical treatment of a patient, Example 2; settings: for effect of past treatment: person, before Accutane
Protocol: (§1) Example 1 to 3 illustrate clinical effectiveness of the above described treatment method. An initial treatment and a maintenance treatment as described above were prescribed to the patients. It is noted that the patients described in the Examples were in the average weight range, therefore, an average dosage of 40 mg was used. It is noted that all patients were told to totally avoid sun exposure during the initial treatment dosage period and for the first one or two weeks after instituting the maintenance dosage because of sun sensitivity with the use of Accutane®.
A person retired Navy Chief Warrant Officer was diagnosed with inflammatory osteoarthritis and rheumatism. The symptoms included joint pains for six to ten years. Initially in 1992 the join pains affected the right hip, and the patient suffered from the hip pain while working. In 1994, the patient developed neck and left shoulder pain. […] Furthermore, the shoulder was diagnosed as a rotator cuff injury. In 1997, the patient's hands became tender when playing golf. The hand condition progressed to puffiness of fingers and a gripping problem with difficulty closing hands. The patient's blood chemistry was normal.
The patient was placed on the 13-cis retanoic acid treatment on May 1, 2002 with an initial dosage about 40 mg Accutane® daily for fourteen days, followed by a maintenance dosage of about 40 mg Accutane® twice a week. […] As a result of such a significant improvement of the physical condition, the patient's golf handicap dropped from eleven (11) to nine (9).

[3] = test system: osteoarthritis with capsulitis; assay: Clinical treatment of a patient, Example 1; settings: for benefit of earlier therapeutic treatments: before Accutane, Asprin two to five 325 mg pills per day
Protocol: as §1
A patient in generally good health had the onset of joint complaints in 1988 affecting only the hands. The main location was in the distal interphalangeal joint (IP joint) which had been fractured in 1980. Symptoms were puffiness and swelling with increasing tenderness over the years. The tenderness had become so pronounced that in 1994 they stopped shaking hands because of the pain. In addition they had progressive difficulty making a fist because of swelling and tightness of the fingers.
X-ray examination found thining of joint space and capsular swelling of the interphalangeal joints. Laboratory examination results were normal. The patient was diagnosed with osteoarthritis with capsulitis.
In April 1997 the patient started taking Accutane® (13-cis retanoid acid, Hoffmann-La Roche Inc., Nutley, N.J.) for another medical condition in an initial dosage of about 40 mg Accutane® daily for twenty one days, followed by a maintenance dosage of about 40 mg Accutane® twice a week (on Monday and Friday).

[4] = test system: osteoarthritis; assay: Clinical treatment of a patient, Example 3
Protocol: as §1
A farmer, had more than a ten year history of hand pain involving fingers, and associated with swelling and tenderness of interphalangeal joints. The hand condition made their work and playing golf difficult. The patient was diagnosed with osteoarthritis.
The patient was placed on 13-cis retanoic acid treatment in April of 2001, with an initial dosage of about 40 mg Accutane® daily for twenty one days, followed by a maintenance dosage of about 40 mg Accutane® twice a week. […] The improvements were maintained during a subsequent six month continuation of the maintenance dosage.

[5] = 40 mg daily 14 days, then 40 mg twice a week
[6] = about 40 mg daily 21 days, then 40 mg twice a week

Question: With `CC1=C(/C=C/C(C)=C/C=C/C(C)=C\C(=O)O)C(C)(C)CCC1` [Accutane, 13-cis-retinoic acid] as the compound, how does the “long term effect on musculoskeletal and connective tissue inflammations” value [1] read?
Answer: Its value is “provides a long term control”.

Question: And the “hand puffiness and grip problems” value [2, 5]?
Answer: The value was “no longer exist”.

Question: And the side effects [2, 5]?
Answer: The side effects was “minimal side effects”.

Question: What about the shoulder pain ([2]; about 40 mg daily 14 days, then 40 mg twice a week, after total of seven weeks, physical therapy continued) of the same compound?
Answer: The shoulder pain was “completely abated”.

Question: And the “range of movement (shoulder)” value ([2]; after total of seven weeks of treatment)?
Answer: Its value is “returned to normal”.

Question: What about the “neck and hip pains” value ([2]; as of August, 2002 (start May 1, 2002)) of the same compound?
Answer: The value was “almost completely abated”.

Question: What about the hand tenderness ([2]; if they play golf three to four days in a row) of the same compound?
Answer: Its hand tenderness is “still exhibit a tinge of tenderness”.

Question: What about the cervical spine tenderness [3, 6] of the same compound?
Answer: Its cervical spine tenderness is “slow improvement”.

Question: What about the “fibro calcified peri-spinous nodules of cervical spine” value [3, 6] of the same compound?
Answer: Its value is “dissolution”.

Question: What about the “range of motion (ROM), cervical spine” value [3, 6] of the same compound?
Answer: The value was “increased range of motion”.

Question: What about the “stiff and painful shoulder condition (old rotator cuff injury, right shoulder)” value ([3]; about 40 mg daily 21 days, then 40 mg twice a week, over the ensuing months) of the same compound?
Answer: Its value is “improvement”.

Question: What about the “blood-chemistries and hematology test results” value ([3]; continued maintenance dosage) of the same compound?
Answer: Its value is “remained normal”.

Question: What about the “overall physical well being / musculoskeletal infirmities” value ([3]; continued maintenance dosage) of the same compound?
Answer: The value was “no longer has any musculoskeletal infirmities”.

Question: What about the “right shoulder pain during the initial treatment” value ([3]; initial treatment about 40 mg daily) of the same compound?
Answer: The value was “increased right shoulder pain was noted, which then abated”.

Question: And the physical side effects ([3]; long-term maintenance dosage 40 mg twice a week)?
Answer: The physical side effects was “No physical side effects have been noted other than dry lips and skin in the early stages”.

Question: What about the hand condition ([3]; person, about 40 mg daily for 21 days, then about 40 mg twice a week, over the ensuing months) of the same compound?
Answer: The hand condition was “gradual, but steady improvement”.

Question: What about the range of movement ([4]; after ten weeks treatment) of the same compound?
Answer: The range of movement was “improvement”.

Question: And the “swelling and tenderness of the fingers” value ([4]; after ten weeks treatment)?
Answer: Its value is “decreased”.

Question: And the “pre-therapy and follow-up blood tests” value ([4]; human, in vivo)?
Answer: The value was “normal”.

Question: What about the symptoms ([4]; person, about 40 mg daily 21 days, then 40 mg twice a week, after ten weeks treatment) of the same compound?
Answer: Its symptoms is “began to improve”.

Question: And the persistence of improvements ([4]; subsequent six month continuation of the maintenance dosage)?
Answer: The persistence of improvements was “maintained”.

Question: What about the side effects ([4]; subsided after taking the maintenance dosage) of the same compound?
Answer: The side effects was “no side effects other than dry lips and skin”.

Question: With `CC(=O)Oc1ccccc1C(=O)O` [Aspirin] as the compound, how does the “effect of past treatment” value [2] read?
Answer: Its value is “minimal effect”.

Question: What about the “benefit of earlier therapeutic treatments” value [3] of the same compound?
Answer: Its value is “minimal or no benefit”.

Question: What does the source list for `CC(C)Cc1ccc(C(C)C(=O)O)cc1` (stereo not drawn) [Motrin, ibuprofen]?
Answer: effect of past treatment [2]: minimal effect; benefit of earlier therapeutic treatments [3]: minimal or no benefit

Question: Which “benefit of earlier therapeutic treatments” value [3] does the source give for `COc1ccc2cc([C@H](C)C(=O)O)ccc2c1` [Naprosyn, naproxen] here?
Answer: Its value is “minimal or no benefit”.
